We go through 19 molecules from patent publication US8574563B2 (Bristol-Myers Squibb Company, priority 2006, dated 2013).

Each structure is given as a SMILES string. Read-outs that look alike come from different tables or passages of the source.

The test system of this assay is HCV 1b-377-neo replicon cells. Kind of assay: HCV replicon assay, HCV 1b-377-neo replicon cells (1b FRET). It counts as cell-based, Hepatitis C virus genotype 1b. The conditions noted are these: HCV 1b-377-neo replicon cells, HCV 1b genotype; for EC50: read-out: EC50 range against HCV 1b (Table 2, Range). An outline of the steps: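 Compounds were tested in genotype 1b subgenomic replicon cells carrying a neomycin marker, alongside a matched replicon line with an NS5A Y2065H substitution that confers resistance to a reference NS5A inhibitor.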
A general note: A replicon is a self-replicating genome or part of one, used to study replication in cells.

A word on the EC50: it is the concentration at which the effect is half-maximal.

For `COC(=O)N[C@@H](C(=O)N1CCC[C@@H]1c1ncc(-c2ccc(-c3ccc(-c4cnc([C@H]5CCCN5C(=O)[C@H](NC(=O)OC)C5CC5)[nH]4)cc3)cc2)[nH]1)C1CC1` [Example M29], the “EC50 range against HCV 1b (Table 2, Range)” value is listed as “>A”.

Consider `CCOC(=O)N[C@H](C)C(=O)N1CCC[C@H]1c1ncc(-c2ccc(-c3ccc(-c4cnc([C@@H]5CCCN5C(=O)[C@@H](c5ccccc5)N(CC)CC)[nH]4)cc3)cc2)[nH]1` [Example M30, ethyl ((1R)-2-((2S)-2-(5-(4′-(2-((2S)-1-((2R)-2-(diethylamino)-2-phenylacetyl)-2-pyrrolidinyl)-1H-imidazol-5-yl)-4-biphenylyl)-1H-imidazol-2-yl)-1-pyrrolidinyl)-1-methyl-2-oxoethyl)carbamate], for which the EC50 (Hepatitis C virus) was 0.001 to 0.099 µM.

As to `CCOC(=O)N[C@@H](C)C(=O)N1CCC[C@H]1c1ncc(-c2ccc(-c3ccc(-c4cnc([C@@H]5CCCN5C(=O)[C@@H](c5ccccc5)N(CC)CC)[nH]4)cc3)cc2)[nH]1` [Example M31, ethyl ((1S)-2-((2S)-2-(5-(4′-(2-((2S)-1-((2R)-2-(diethylamino)-2-phenylacetyl)-2-pyrrolidinyl)-1H-imidazol-5-yl)-4-biphenylyl)-1H-imidazol-2-yl)-1-pyrrolidinyl)-1-methyl-2-oxoethyl)carbamate], under “Hepatitis C virus”, the EC50 fell in the range of 0.001 to 0.099 µM.

Turning to `CCN(CC)[C@@H](C(=O)N1CCC[C@H]1c1ncc(-c2ccc(-c3ccc(-c4cnc([C@@H]5CCCN5C(=O)[C@@H]5CCC(=O)N5)[nH]4)cc3)cc2)[nH]1)c1ccccc1` [Example M32, (5S)-5-(((2S)-2-(5-(4′-(2-((2S)-1-((2R)-2-(diethylamino)-2-phenylacetyl)-2-pyrrolidinyl)-1H-imidazol-5-yl)-4-biphenylyl)-1H-imidazol-2-yl)-1-pyrrolidinyl)carbonyl)-2-pyrrolidinone], the EC50 (Hepatitis C virus) lay in the range of 0.1 to 0.999 µM.

In the case of `CCN(CC)[C@@H](C(=O)N1CCC[C@H]1c1ncc(-c2ccc(-c3ccc(-c4cnc([C@@H]5CCCN5C(=O)C5(NC(=O)OC)CC5)[nH]4)cc3)cc2)[nH]1)c1ccccc1` [Example M33, methyl (1-(((2S)-2-(5-(4′-(2-((2S)-1-((2R)-2-(diethylamino)-2-phenylacetyl)-2-pyrrolidinyl)-1H-imidazol-5-yl)-4-biphenylyl)-1H-imidazol-2-yl)-1-pyrrolidinyl)carbonyl)cyclopropyl) carbamate], the EC50 was in the range of 0.001 to 0.099 µM.

For the molecule `CCN(CC)[C@@H](C(=O)N1CCC[C@H]1c1ncc(-c2ccc(-c3ccc(-c4cnc([C@@H]5CCCN5C(=O)C(C)(C)NC(=O)OC)[nH]4)cc3)cc2)[nH]1)c1ccccc1` [Example M34, methyl (2-((2S)-2-(5-(4′-(2-((2S)-1-((2R)-2-(diethylamino)-2-phenylacetyl)-2-pyrrolidinyl)-1H-imidazol-5-yl)-4-biphenylyl)-1H-imidazol-2-yl)-1-pyrrolidinyl)-1,1-dimethyl-2-oxoethyl)carbamate], the EC50 (Hepatitis C virus) lay within 0.001 to 0.099 µM.

With `CCN(CC)[C@H](C)C(=O)N1CCC[C@H]1c1ncc(-c2ccc(-c3ccc(-c4cnc([C@@H]5CCCN5C(=O)[C@@H](c5ccccc5)N(CC)CC)[nH]4)cc3)cc2)[nH]1` [Example M35, (2R)-1-((2S)-2-(5-(4′-(2-((2S)-1-((2R)-2-(diethylamino)-2-phenylacetyl)-2-pyrrolidinyl)-1H-imidazol-5-yl)-4-biphenylyl)-1H-imidazol-2-yl)-1-pyrrolidinyl)-N,N-diethyl-1-oxo-2-propanamine], the EC50 (Hepatitis C virus) fell in the range of 0.001 to 0.099 µM.

Turning to `CCN(CC)[C@@H](C)C(=O)N1CCC[C@H]1c1ncc(-c2ccc(-c3ccc(-c4cnc([C@@H]5CCCN5C(=O)[C@@H](c5ccccc5)N(CC)CC)[nH]4)cc3)cc2)[nH]1` [Example M36, (2S)-1-((2S)-2-(5-(4′-(2-((2S)-1-((2R)-2-(diethylamino)-2-phenylacetyl)-2-pyrrolidinyl)-1H-imidazol-5-yl)-4-biphenylyl)-1H-imidazol-2-yl)-1-pyrrolidinyl)-N,N-diethyl-1-oxo-2-propanamine], for the setting “Hepatitis C virus”, the EC50 was in the range of 0.001 to 0.099 µM.

For `CCN(CC)[C@@H](C(=O)N1CCC[C@H]1c1ncc(-c2ccc(-c3ccc(-c4cnc([C@@H]5CCCN5C(=O)c5ncco5)[nH]4)cc3)cc2)[nH]1)c1ccccc1` [Example M37, (1R)-N,N-diethyl-2-((2S)-2-(5-(4′-(2-((2S)-1-(1,3-oxazol-2-ylcarbonyl)-2-pyrrolidinyl)-1H-imidazol-5-yl)-4-biphenylyl)-1H-imidazol-2-yl)-1-pyrrolidinyl)-2-oxo-1-phenylethanamine], for the setting “Hepatitis C virus”, the EC50 fell in the range of 0.001 to 0.099 µM.

Take `CCN(CC)[C@@H](C(=O)N1CCC[C@H]1c1ncc(-c2ccc(-c3ccc(-c4cnc([C@@H]5CCCN5C(=O)c5cccnc5)[nH]4)cc3)cc2)[nH]1)c1ccccc1` [Example M38, (1R)-N,N-diethyl-2-oxo-1-phenyl-2-((2S)-2-(5-(4′-(2-((2S)-1-(3-pyridinylcarbonyl)-2-pyrrolidinyl)-1H-imidazol-5-yl)-4-biphenylyl)-1H-imidazol-2-yl)-1-pyrrolidinyl)ethanamine]: the EC50 (Hepatitis C virus) fell in the range of 0.001 to 0.099 µM.

Consider `CCN(CC)[C@@H](C(=O)N1CCC[C@H]1c1ncc(-c2ccc(-c3ccc(-c4cnc([C@@H]5CCCN5C(=O)[C@@H](C)O)[nH]4)cc3)cc2)[nH]1)c1ccccc1` [Example M39, (2R)-1-((2S)-2-(5-(4′-(2-((2S)-1-((2R)-2-(diethylamino)-2-phenylacetyl)-2-pyrrolidinyl)-1H-imidazol-5-yl)-4-biphenylyl)-1H-imidazol-2-yl)-1-pyrrolidinyl)-1-oxo-2-propanol], for which the EC50 (Hepatitis C virus) was 0.001 to 0.099 µM.

In the case of `CCN(CC)[C@@H](C(=O)N1CCC[C@H]1c1ncc(-c2ccc(-c3ccc(-c4cnc([C@@H]5CCCN5C(=O)[C@H](C)O)[nH]4)cc3)cc2)[nH]1)c1ccccc1` [Example M40, (2S)-1-((2S)-2-(5-(4′-(2-((2S)-1-((2R)-2-(diethylamino)-2-phenylacetyl)-2-pyrrolidinyl)-1H-imidazol-5-yl)-4-biphenylyl)-1H-imidazol-2-yl)-1-pyrrolidinyl)-1-oxo-2-propanol], the EC50 (Hepatitis C virus) was in the range of 0.001 to 0.099 µM.

As for `CCN(CC)[C@@H](C(=O)N1CCC[C@H]1c1ncc(-c2ccc(-c3ccc(-c4cnc([C@@H]5CCCN5C(=O)C5(NC(=O)OC)CCC5)[nH]4)cc3)cc2)[nH]1)c1ccccc1` [Example M41, methyl (1-(((2S)-2-(5-(4′-(2-((2S)-1-((2R)-2-(diethylamino)-2-phenylacetyl)-2-pyrrolidinyl)-1H-imidazol-5-yl)-4-biphenylyl)-1H-imidazol-2-yl)-1-pyrrolidinyl)carbonyl)cyclobutyl) carbamate], the EC50 lay within 0.001 to 0.099 µM.

Take `CCN(CC)[C@@H](C(=O)N1CCC[C@H]1c1ncc(-c2ccc(-c3ccc(-c4cnc([C@@H]5CCCN5C(=O)C5(NC(=O)OC)CCCC5)[nH]4)cc3)cc2)[nH]1)c1ccccc1` [Example M42, methyl (1-(((2S)-2-(5-(4′-(2-((2S)-1-((2R)-2-(diethylamino)-2-phenylacetyl)-2-pyrrolidinyl)-1H-imidazol-5-yl)-4-biphenylyl)-1H-imidazol-2-yl)-1-pyrrolidinyl)carbonyl)cyclopentyl) carbamate]: the EC50 was 0.001 to 0.099 µM.

As to `CCCN(CCC)[C@@H](C)C(=O)N1CCC[C@H]1c1ncc(-c2ccc(-c3ccc(-c4cnc([C@@H]5CCCN5C(=O)[C@@H](c5ccccc5)N(CC)CC)[nH]4)cc3)cc2)[nH]1` [Example M43, N-((1S)-2-((2S)-2-(5-(4′-(2-((2S)-1-((2R)-2-(diethylamino)-2-phenylacetyl)-2-pyrrolidinyl)-1H-imidazol-5-yl)-4-biphenylyl)-1H-imidazol-2-yl)-1-pyrrolidinyl)-1-methyl-2-oxoethyl)-N-propyl-1-propanamine], where the note is “Hepatitis C virus”, the EC50 is 0.001 to 0.099 µM.

As for `CCN(CC)[C@@H](C(=O)N1CCC[C@H]1c1ncc(-c2ccc(-c3ccc(-c4cnc([C@@H]5CCCN5C(=O)[C@@H]5COC(=O)N5)[nH]4)cc3)cc2)[nH]1)c1ccccc1` [Example M44, (4S)-4-(((2S)-2-(5-(4′-(2-((2S)-1-((2R)-2-(diethylamino)-2-phenylacetyl)-2-pyrrolidinyl)-1H-imidazol-5-yl)-4-biphenylyl)-1H-imidazol-2-yl)-1-pyrrolidinyl)carbonyl)-1,3-oxazolidin-2-one], under “Hepatitis C virus”, the EC50 lay in the range of 0.1 to 0.999 µM.

Turning to `CCN(CC)[C@@H](C(=O)N1CCC[C@H]1c1ncc(-c2ccc(-c3ccc(-c4cnc([C@@H]5CCCN5C(=O)[C@@H](C(C)C)N(CC)CC)[nH]4)cc3)cc2)[nH]1)c1ccccc1` [Example M45, (2R)-1-((2S)-2-(5-(4′-(2-((2S)-1-((2R)-2-(diethylamino)-2-phenylacetyl)-2-pyrrolidinyl)-1H-imidazol-5-yl)-4-biphenylyl)-1H-imidazol-2-yl)-1-pyrrolidinyl)-N,N-diethyl-3-methyl-1-oxo-2-butanamine], under “Hepatitis C virus”, the EC50 was 0.001 to 0.099 µM.

As to `CCCN(CCC)[C@H](C)C(=O)N1CCC[C@H]1c1ncc(-c2ccc(-c3ccc(-c4cnc([C@@H]5CCCN5C(=O)[C@@H](c5ccccc5)N(CC)CC)[nH]4)cc3)cc2)[nH]1` [Example M46, N-((1R)-2-((2S)-2-(5-(4′-(2-((2S)-1-((2R)-2-(diethylamino)-2-phenylacetyl)-2-pyrrolidinyl)-1H-imidazol-5-yl)-4-biphenylyl)-1H-imidazol-2-yl)-1-pyrrolidinyl)-1-methyl-2-oxoethyl)-N-propyl-1-propanamine], the EC50 (Hepatitis C virus) fell in the range of 0.001 to 0.099 µM.

Take `CCN(CC)[C@@H](C(=O)N1CCC[C@H]1c1ncc(-c2ccc(-c3ccc(-c4cnc([C@@H]5CCCN5C(=O)[C@H](NC(=O)OC)c5ccccc5)[nH]4)cc3)cc2)[nH]1)c1ccccc1` [Example M47, methyl ((1R)-2-((2S)-2-(5-(4′-(2-((2S)-1-((2R)-2-(diethylamino)-2-phenylacetyl)-2-pyrrolidinyl)-1H-imidazol-5-yl)-4-biphenylyl)-1H-imidazol-2-yl)-1-pyrrolidinyl)-2-oxo-1-phenylethyl)carbamate]: under “Hepatitis C virus”, the EC50 is 0.001 to 0.099 µM.
